# Source: US20090123376A1, “THERAPEUTIC AGENTS WITH DECREASED TOXICITY” (priority 2004, published 2009)
# Non-standard residues stand in square brackets, D forms with d. Residues, ends and D or L forms follow the SMILES beside them. *: point of attachment. Dolaproine = CO[C@@H]([C@@H]1CCCN1)[C@@H](C)C(=O)O; Dil = CC[C@H](C)[C@H](NC)[C@@H](CC(=O)O)OC; X1 = C[C@@H](N*)[C@@H](O)c1ccccc1; NMeV = CN[C@H](C(=O)O)C(C)C
# Columns and labels:
# [1] = Toxicity of IgG-MMAE, F(ab')2-MMAE conjugates and free MMAE in rats (Example 3); assay type: in vivo, Female Spraque-Dawley (SD) rats
# Experimental: Female Spraque-Dawley (SD) rats weighing between 75-80 grams (Charles River Laboratories, Hollister, Calif.) were used in the following studies to compare the toxicity of free MMAE, Fab-MMAE and F(ab′)2-MMAE conjugates.
# The body surface area was calculated as follows: [{(body weight in grams to 0.667 power)×11.8}/10000]. (Guidance for Industry and Reviewers. Estimating the Safety Starting Dose in Clinical Trials for Therapeutics in Adult Healthy Volunteers. U.S. Department of Health and Human Services Food and Drug Administration, Center for Drug Evaluation and Research (CDER), Center for Biologics Evaluation and research (CBER), December 2002).
# General clinical observations were performed daily. Morbidity and mortality checks were performed twice daily (AM and PM). The body weights of the animals were measured pre-dose on Study Day 1 and daily thereafter. Whole blood was collected into EDTA containing tubes for hematology parameters (e.g., mean serum AST levels, ALT levels, GGT levels and billirubin levels) and differential cell counts (e.g., mean white blood cell counts and platelet counts). Whole blood was collected into serum separator tubes for clinical chemistry parameters. Blood samples were collected pre-dose on Study Day-4, on Study Day 3 and on Day 5 at necropsy. Whole blood was also collected into lithium heparin containing tubes at necropsy and the plasma was frozen at −70° C. for later analysis. The following tissues were collected at necropsy: liver, kidneys, heart, thymus, spleen, brain, sternum and sections of the GI tract, including stomach, large and small intestine. At necropsy, only spleen and thymus were weighed. All statistical analyses were done on Day 5 body weights using a One Way ANOVA, Tukey's test, (SigmaStat 2.03 Software).
# [2] = test system: MMTV-HER2 transgenic mammary tumors (Fo5); conditions: established MMTV-HER2 transgenic mammary tumors (Fo5)
# Experimental: Log Cell Kill analyses based on tumor doubling times were conducted. The Log Cell Kill analysis uses a mathematical computation of tumor growth delay based on the time it takes for tumors to double in size after treatment begins compared to controls.
# [3] = 2105 μg MMAE/m2, day 3 (Herceptin-vc-MMAE days 3 and 5)
# [4] = 2105 μg MMAE/m2 single iv bolus
Compound,morphologic changes (histology) ([1]; 2105 μg MMAE/m2),"liver associated serum enzymes / liver function tests [1, 3]","platelet and white blood cell counts [1, 3]","body weight lost by Day 3 compared with Day 1 weights [1, 4]","weight loss, comparison between groups [1, 4]","clinical observations ([1]; 2105 μg MMAE/m2 single iv bolus, Study Day 3)",response of the Fo5 tumor line [2]
"CC[C@H](C)[C@@H]([C@@H](CC(=O)N1CCC[C@H]1[C@H](OC)[C@@H](C)C(=O)N[C@H](C)[C@@H](O)c1ccccc1)OC)N(C)C(=O)[C@@H](NC(=O)[C@@H](NC)C(C)C)C(C)C [free MMAE, monomethylauristatin] (H-[NMeV]V[Dil][Dolaproine]-X1)",most severe,"highest elevations in liver associated serum enzymes ALT, AST and GGT",lowest platelet and white blood cell counts,12 grams,comparable weight loss,moribund,
Herceptin®,,,,,,,non-responsive
